Values quoted from earlier work in article PMC11047177 (ESMO Open, 2024).
Where two headings read alike, the source gives them in different places.

Columns and labels:
[1] = cited from earlier work
[2] = cited from earlier work; remark: listed apart in the source
[3] = patients with advanced solid tumors
[4] = advanced solid tumors, non-Hodgkin's lymphoma, or lower-risk myelodysplastic syndrome

SMILES | Preliminary evidence of antitumor activity [1] | TRAE Anemia [1, 3] [%] | TRAE Dysgeusia [1, 3] [%] | TRAE Fatigue [1, 3] [%] | TRAE Nausea [1, 3] [%] | TRAE Fatigue [2, 4] [%] | TRAE Nausea [2, 4] [%] | TRAE thrombocytopenia [2, 4] [%] | Preliminary evidence of antitumor activity [2]
CC(=O)N1CCC(Nc2cc(C(=O)NC[C@H](O)CN3CCc4ccccc4C3)ncn2)CC1 [GSK3326595] | patients achieving PRs | 31 | 26 | 39 | 31 |  |  |  | 
Nc1nc2cc(CC[C@H]3C[C@@H](n4ccc5c(N)ncnc54)[C@H](O)[C@@H]3O)ccc2cc1Br [JNJ-64619178] |  |  |  |  |  | 32 | 39 | 52 | patients achieving PRs
